The text below walks through data of the supplement of paper PMC10307832.

Experiment in all cases: relative viability (nuclei count vs DMSO), 5 days (fraction); higher = more cells survive
Compound in the assay “AZD5582 + Foretinib”: C[C@@H](C(=O)N[C@@H](C1CCCCC1)C(=O)N2CCC[C@H]2C(=O)N[C@@H]3[C@@H](CC4=CC=CC=C34)OCC#CC#CCO[C@@H]5CC6=CC=CC=C6[C@@H]5NC(=O)[C@@H]7CCCN7C(=O)[C@H](C8CCCCC8)NC(=O)[C@H](C)NC)NC [AZD5582] + COc1cc2c(Oc3ccc(NC(=O)C4(C(=O)Nc5ccc(F)cc5)CC4)cc3F)ccnc2cc1OCCCN1CCOCC1 [Foretinib] (partner 0.25 µM)
An outline of the steps: (§1)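 Lung cancer cell lines were pin-tool dosed in 1536-well plates on the day after seeding, with either a lone drug or a fixed anchor-drug dose plus five library-drug doses (not always all listed) in √10 steps. Nuclei were counted on 4× images after 5 days. Relative viability is the ratio of treated-well to vehicle-well nuclei counts, with each value a median of duplicate plates.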

Compound in the assay “AZD5582 + Navitoclax”: C[C@@H](C(=O)N[C@@H](C1CCCCC1)C(=O)N2CCC[C@H]2C(=O)N[C@@H]3[C@@H](CC4=CC=CC=C34)OCC#CC#CCO[C@@H]5CC6=CC=CC=C6[C@@H]5NC(=O)[C@@H]7CCCN7C(=O)[C@H](C8CCCCC8)NC(=O)[C@H](C)NC)NC [AZD5582] + CC1(C)CCC(c2ccc(Cl)cc2)=C(CN2CCN(c3ccc(C(=O)NS(=O)(=O)c4ccc(N[C@H](CCN5CCOCC5)CSc5ccccc5)c(S(=O)(=O)C(F)(F)F)c4)cc3)CC2)C1 [Navitoclax] (partner 0.5 µM)
Summed up:
as §1

Compound in the assay “Temozolomide + Alpelisib”: Cn1nnc2c(C(N)=O)ncn2c1=O [Temozolomide] + Cc1nc(NC(=O)N2CCC[C@H]2C(N)=O)sc1-c1ccnc(C(C)(C)C(F)(F)F)c1 [Alpelisib] (partner 2 µM)
An outline of the steps:
as §1

Compound in assay [1]: Cn1nnc2c(C(N)=O)ncn2c1=O [Temozolomide] + CS(=O)(=O)N1CCN(Cc2cc3nc(-c4cccc5[nH]ncc45)nc(N4CCOCC4)c3s2)CC1 [Pictilisib] (partner 1 µM)
Summed up: as §1

Compound in the assay “AZD5582 + AZD7762”: C[C@@H](C(=O)N[C@@H](C1CCCCC1)C(=O)N2CCC[C@H]2C(=O)N[C@@H]3[C@@H](CC4=CC=CC=C34)OCC#CC#CCO[C@@H]5CC6=CC=CC=C6[C@@H]5NC(=O)[C@@H]7CCCN7C(=O)[C@H](C8CCCCC8)NC(=O)[C@H](C)NC)NC [AZD5582] + NC(=O)Nc1cc(-c2cccc(F)c2)sc1C(=O)N[C@H]1CCCNC1 [AZD7762] (partner 0.2 µM)
The settings on record: first compound 0.05 µM. Summed up: as §1

Compound in the assay “AZD5582 + Pictilisib”: C[C@@H](C(=O)N[C@@H](C1CCCCC1)C(=O)N2CCC[C@H]2C(=O)N[C@@H]3[C@@H](CC4=CC=CC=C34)OCC#CC#CCO[C@@H]5CC6=CC=CC=C6[C@@H]5NC(=O)[C@@H]7CCCN7C(=O)[C@H](C8CCCCC8)NC(=O)[C@H](C)NC)NC [AZD5582] + CS(=O)(=O)N1CCN(Cc2cc3nc(-c4cccc5[nH]ncc45)nc(N4CCOCC4)c3s2)CC1 [Pictilisib] (partner 1 µM)
An outline of the steps:
as §1

Take NCI-H1703: the relative viability was determined as 0.412 in the assay with AZD5582 + Foretinib (first compound 0.005 µM); 0.376 with AZD5582 + Foretinib (first compound 0.01581 µM); 0.372 with AZD5582 + Foretinib (first compound 0.05 µM); 0.874 with AZD5582 + Navitoclax (first compound 0.001581 µM); 0.807 in the assay with AZD5582 + Navitoclax (first compound 0.005 µM); 1.03 with AZD5582 + Navitoclax (first compound 0.01581 µM). The relative viability with AZD5582 + Navitoclax (first compound 0.05 µM) is 0.557; with Temozolomide + Alpelisib (first compound 0.2 µM) it was 0.367; with Temozolomide + Alpelisib (first compound 0.6325 µM) it was 0.344; in the assay with Temozolomide + Alpelisib (first compound 2 µM), 0.463; with Temozolomide + Alpelisib (first compound 6.325 µM) it was 0.288; with Temozolomide + Alpelisib (first compound 20 µM), 0.315. For the same cell line, the relative viability in assay [1] (first compound 0.2 µM) came out at 0.249; in assay [1] (first compound 0.6325 µM), 0.255; in assay [1] (first compound 2 µM) it was 0.301; in assay [1] (first compound 20 µM), 0.272; with AZD5582 + AZD7762 it was 0.126; in the assay with AZD5582 + Pictilisib (first compound 0.005 µM) it was 0.255. For the same cell line, the results for the relative viability in the assay with AZD5582 + Pictilisib (first compound 0.01581 µM) and with AZD5582 + Pictilisib (first compound 0.05 µM) were 0.291 and 0.251, respectively.
